In patent US20240139280A1, “USE OF HIF-1-ALPHA INHIBITORS IN CANCER IMMUNOTHERAPY” (ONCOC4, INC., priority 2021, published 2024):

Tests used:
[1] = test system: E0771 tumor; assay: E0771 tumor growth in mice (incl. shRNA sublines, cell depletion); assay type: in vivo
Experimental: FIGS. 3A-D show the therapeutic effects of echinomycin on tumor growth in immunodeficient and immunocompetent mice. FIG. 3A. Experimental design. Three murine tumor lines were tested: 4T1, E0771, or MC38. For each, immunodeficient and immunocompetent mice were inoculated (day 0), and treatment was initiated with control liposomes (vehicle) or echinomycin liposomes (LEM) on day 6, indicated by arrows in FIGS. 3B-3D. The kinetics of tumor growth were compared to deduce the role of adaptive immunity in the therapeutic effects of echinomycin. FIG. 3B. 4T1 cells (1×10^6) were transplanted into mammary fat pad of NSG and BALB/c mice, which received vehicle or echinomycin (0.15 mg/kg) (arrows). Mean tumor volumes±SEM are shown for one of two independent experiments (n=10/group). FIG. 3C. Kinetics of E0771 tumor growth. E0771 cells (0.7×10^6) were transplanted into mammary fat pad of NSG and C57BL/6 mice, which received vehicle or echinomycin (0.25 mg/kg) (arrows). Mean tumor volumes±SEM are shown for one of two independent experiments (n=5/group). FIG. 3D. Kinetics of MC38 tumor growth. MC38 cells (1×10^6) were transplanted subcutaneously into NSG and C57BL/6 mice, which received vehicle or echinomycin (0.15 mg/kg) (blue arrows). Mean tumor volumes±SEM are shown for one of two independent experiments (n=5/group).
FIGS. 4A-D show the effects of pharmacological and/or genetic targeting of HIF-1α on E0771 tumor growth in immunodeficient or immunocompetent mice. FIG. 4A. Experimental design. Three sublines of E0771 were generated by lentiviral transduction: scrambled shRNA (sh^−Scr), or shRNA for the Hif1α (sh^−Hif1α) or Pdl1 (sh^−Pdl1) genes. For each subline, 0.5×10^6 cells were orthotopically transplanted into NSG or C57BL/6 mice (day 0), which received vehicle or echinomycin (0.25 mg/kg) starting day 6. FIG. 4B. Effects of Hif1α or Pdl1 knockdown on E0771 growth among immunodeficient or immunocompetent recipients. FIG. 4C. Effects of vehicle or echinomycin on sh^−Scr, sh^−Hif1α, or sh^−Pdl1 E0771 growth in immunocompetent C57BL/6 recipients. FIG. 4D. Effects of vehicle or echinomycin (arrows) on sh^−Scr, sh^−Hif1α, or sh^−Pdl1 E0771 growth in immunodeficient NSG recipients. Data shown are means+/−SEM (n=5/group) and are representative of 2 experiments.
FIGS. 5A-D show at echinomycin potentiates the therapeutic effect of anti-CTLA-4 antibody. FIG. 5A. Experimental design. In 4T1, E0771, or MC38 syngeneic tumor models, the effects of echinomycin on tumor growth were tested in combination with anti-CTLA-4 therapy (9D9). Tumor growth kinetics in mice receiving vehicle, echinomycin, and anti-CTLA-4 (9D9) monotherapies, or anti-CTLA-4+anti-PD-1 (9D9+RMP1-14) are shown. Starting on day 6 after tumor cell inoculation, mice received vehicle or echinomycin and/or various mAbs. The mean tumor volumes±SEM are shown for each group. FIG. 5B. Effects of 9D9+echinomycin on 4T1 tumor growth. BALB/c mice received vehicle, liposomal echinomycin (LEM, 0.15 mg/kg) (blue arrows), 9D9 (0.2 mg/mouse/injection) (red arrows), or both (n=10/group). Data shown for one of three independent experiments. FIG. 5C. Effects of 9D9+echinomycin on syngeneic E0771 growth. E0771 cells (0.5×10^6) were orthotopically transplanted into the mammary fat pads of C57BL/6 mice. Mice received vehicle or echinomycin (0.25 mg/kg) and/or various mAbs (0.2 mg/mouse/injection) (red arrows). Representative data shown for one of three independent experiments (n=5/group). FIG. 5D. […]

[2] = test system: E0771 tumor microenvironment; assay: Flow cytometry of dissociated E0771 tumors (tumor cells, myeloid cells, TILs); assay type: in vivo, C57BL/6 mice

## CSC1SC[C@H]2C(=O)N(C)[C@@H](C(C)C)C(=O)OC[C@@H](NC(=O)c3cnc4ccccc4n3)C(=O)N[C@@H](C)C(=O)N(C)[C@@H]1C(=O)N(C)[C@@H](C(C)C)C(=O)OC[C@@H](NC(=O)c1cnc3ccccc3n1)C(=O)N[C@@H](C)C(=O)N2C (stereo in doubt) [echinomycin, N,N′-(2,4,12,15,17,25-hexamethyl-11,24-bis(1-methylethyl)-27-(methylthio)-3,6,10,13,16,19,23,26-octaoxo-9,22-dioxa-28-thia-2,5,12,15,18,25-hexaazabicyclo(12.12.3)nonacosane-7,20-diyl)bis(2-quinoxalinecarboxamide)]
[1]; C57BL/6, echinomycin 0.25 mg/kg, mAbs 0.2 mg/mouse/injection, vs vehicle
  E0771 tumor growth, combination study: significant inhibition of tumor growth
[1]; C57BL/6 compared to NSG recipients, echinomycin 0.25 mg/kg
  sh-Scr E0771 tumor growth: more effectively inhibited
[1]; C57BL/6 or NSG recipients, echinomycin 0.25 mg/kg
  sh-Pdl1 E0771 tumor growth: did not further suppress
[1]; immunocompetent C57BL/6, echinomycin 0.25 mg/kg
  E0771 tumor growth: therapeutic effect on immune competent
[1]; regardless of recipient strain (C57BL/6, NSG), echinomycin 0.25 mg/kg
  sh-Hif1α E0771 tumor growth: did not inhibit
[2]; Hif1α conditional knockout in T lineages
  inhibition of PD-L1 on tumor cells in mice with conditional knockout of Hif1α in T cells: preserved
[2]; echinomycin-treated mice
  CD3 TIL infiltration into hypoxic areas of the tumors: increase in CD3 TIL infiltration into hypoxic areas
